Measured values taken from PubChem BioAssay (NCI).
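Following 48 hours of exposure in 96-well plates, responses at five concentrations were used to interpolate endpoints linearly. The concentration for 50% growth inhibition is given as GI50. Definition used: TGI = concentration required for complete inhibition of growth.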

Tests used:
Experiment in all cases: NCI anticancer screen, dose series, 48 h
SF-295 CNS = test system: SF-295 CNS
SNB-19 CNS = test system: SNB-19 CNS
786-0 renal = test system: 786-0 renal
UACC-62 melanoma = test system: UACC-62 melanoma
SK-OV-3 ovarian = test system: SK-OV-3 ovarian
NCI-H522 lung = test system: NCI-H522 lung
COLO 205 colon = test system: COLO 205 colon
UACC-257 melanoma = test system: UACC-257 melanoma
SW-620 colon = test system: SW-620 colon
IGROV1 ovarian = test system: IGROV1 ovarian
HCT-116 colon = test system: HCT-116 colon
SK-MEL-5 melanoma = test system: SK-MEL-5 melanoma
OVCAR-3 ovarian = test system: OVCAR-3 ovarian
EKVX NSCLC = test system: EKVX NSCLC
U251 CNS = test system: U251 CNS
OVCAR-4 ovarian = test system: OVCAR-4 ovarian
HCT-15 colon = test system: HCT-15 colon
SF-268 CNS = test system: SF-268 CNS
HCC-2998 colon = test system: HCC-2998 colon
RPMI-8226 leukemia = test system: RPMI-8226 leukemia
OVCAR-8 ovarian = test system: OVCAR-8 ovarian
HL-60(TB) leukemia = test system: HL-60(TB) leukemia
A549 NSCLC = test system: A549 NSCLC
MDA-MB-468 breast = test system: MDA-MB-468 breast
M14 melanoma = test system: M14 melanoma
SK-MEL-2 melanoma = test system: SK-MEL-2 melanoma
SNB-75 CNS = test system: SNB-75 CNS
BT-549 breast = test system: BT-549 breast
KM12 colon = test system: KM12 colon
SN12C renal = test system: SN12C renal
MDA-MB-435 = test system: MDA-MB-435
LOX IMVI melanoma = test system: LOX IMVI melanoma
UO-31 renal = test system: UO-31 renal
CCRF-CEM leukemia = test system: CCRF-CEM leukemia
A498 renal = test system: A498 renal
SR leukemia = test system: SR leukemia
CAKI-1 renal = test system: CAKI-1 renal
HT29 colon = test system: HT29 colon
PC-3 prostate = test system: PC-3 prostate
SF-539 CNS = test system: SF-539 CNS
K-562 leukemia = test system: K-562 leukemia
MDA-MB-231 breast = test system: MDA-MB-231 breast
HOP-92 NSCLC = test system: HOP-92 NSCLC
HS 578T breast = test system: HS 578T breast
TK-10 renal = test system: TK-10 renal
MCF7 breast = test system: MCF7 breast
NCI-H460 lung = test system: NCI-H460 lung
ACHN renal = test system: ACHN renal
T-47D breast = test system: T-47D breast
NCI-H226 lung = test system: NCI-H226 lung
HOP-62 NSCLC = test system: HOP-62 NSCLC
NCI-H23 lung = test system: NCI-H23 lung
MOLT-4 leukemia = test system: MOLT-4 leukemia
MALME-3M melanoma = test system: MALME-3M melanoma
NCI/ADR-RES ovarian = test system: NCI/ADR-RES ovarian
DU-145 prostate = test system: DU-145 prostate
SK-MEL-28 melanoma = test system: SK-MEL-28 melanoma
OVCAR-5 ovarian = test system: OVCAR-5 ovarian
RXF 393 renal = test system: RXF 393 renal

## O=C1NC(=O)c2c1c1c3cc(Br)ccc3[nH]c1c1oc3ccc(F)cc3c21
SF-295 CNS
  GI50: 5.95 µM
  TGI: > 100 µM
SNB-19 CNS
  GI50: 2.17 µM
  TGI: 6.04 µM
786-0 renal
  GI50: 3.62 µM
  TGI: 21.9 µM
UACC-62 melanoma
  GI50: 1.39 µM
  TGI: 4.88 µM
SK-OV-3 ovarian
  GI50: 2.04 µM
  TGI: 5.37 µM
NCI-H522 lung
  GI50: 1.42 µM
  TGI: 3.31 µM
COLO 205 colon
  GI50: 2.96 µM
  TGI: > 100 µM
UACC-257 melanoma
  GI50: 6.09 µM
  TGI: > 100 µM
SW-620 colon
  GI50: 2.39 µM
  TGI: > 100 µM
IGROV1 ovarian
  GI50: 1.03 µM
  TGI: 3.15 µM
HCT-116 colon
  GI50: 3 µM
  TGI: > 100 µM
SK-MEL-5 melanoma
  GI50: 3.72 µM
  TGI: > 100 µM
OVCAR-3 ovarian
  GI50: 2.14 µM
  TGI: 5.3 µM
EKVX NSCLC
  GI50: 3.99 µM
  TGI: > 100 µM
U251 CNS
  GI50: 1.73 µM
  TGI: 3.87 µM
OVCAR-4 ovarian
  GI50: 1.55 µM
  TGI: 3.33 µM
HCT-15 colon
  GI50: 2.93 µM
  TGI: > 100 µM
SF-268 CNS
  GI50: 2.61 µM
  TGI: 7.8 µM
HCC-2998 colon
  GI50: 3.39 µM
  TGI: 45.6 µM
RPMI-8226 leukemia
  GI50: 3.71 µM
  TGI: > 100 µM
OVCAR-8 ovarian
  GI50: 1.67 µM
  TGI: 4.77 µM
HL-60(TB) leukemia
  GI50: > 100 µM
  TGI: > 100 µM
A549 NSCLC
  GI50: 6.84 µM
  TGI: > 100 µM
MDA-MB-468 breast
  GI50: 1.35 µM
  TGI: 3.06 µM
M14 melanoma
  GI50: 3.16 µM
  TGI: > 100 µM
SK-MEL-2 melanoma
  GI50: 2.21 µM
  TGI: 6.17 µM
SNB-75 CNS
  GI50: 2.09 µM
  TGI: 7.99 µM
BT-549 breast
  GI50: 9.86 µM
  TGI: > 100 µM
KM12 colon
  GI50: 2.87 µM
  TGI: > 100 µM
SN12C renal
  GI50: 1.71 µM
  TGI: 3.69 µM
MDA-MB-435
  GI50: 4.24 µM
  TGI: > 100 µM
LOX IMVI melanoma
  GI50: 1.43 µM
  TGI: 2.77 µM
UO-31 renal
  GI50: 0.358 µM
  TGI: > 100 µM
CCRF-CEM leukemia
  GI50: 0.2 µM
  TGI: > 100 µM
A498 renal
  GI50: 2.02 µM
  TGI: 3.54 µM
SR leukemia
  GI50: 4.47 µM
  TGI: > 100 µM
CAKI-1 renal
  GI50: 2.25 µM
  TGI: > 100 µM
HT29 colon
  GI50: 3.59 µM
  TGI: > 100 µM
PC-3 prostate
  GI50: 1.69 µM
  TGI: 4.99 µM
SF-539 CNS
  GI50: 1.79 µM
  TGI: 3.53 µM
K-562 leukemia
  GI50: 3.66 µM
  TGI: > 100 µM
MDA-MB-231 breast
  GI50: 1.57 µM
  TGI: 3.58 µM
HOP-92 NSCLC
  GI50: 1.59 µM
  TGI: 4.52 µM
HS 578T breast
  GI50: 1.91 µM
  TGI: 4.66 µM
TK-10 renal
  GI50: 3.47 µM
  TGI: > 100 µM
MCF7 breast
  GI50: 0.877 µM
  TGI: 3.32 µM
NCI-H460 lung
  GI50: 1.46 µM
  TGI: 3.32 µM
ACHN renal
  GI50: 1.97 µM
  TGI: 5.3 µM
T-47D breast
  GI50: 1.24 µM
  TGI: 4.51 µM
NCI-H226 lung
  GI50: 1.1 µM
  TGI: 2.6 µM
HOP-62 NSCLC
  GI50: 1.58 µM
  TGI: 3.52 µM
NCI-H23 lung
  GI50: 1.75 µM
  TGI: 4.06 µM
MOLT-4 leukemia
  GI50: 0.533 µM
  TGI: > 100 µM
MALME-3M melanoma
  GI50: 1.42 µM
  TGI: 4.01 µM
NCI/ADR-RES ovarian
  GI50: 3.43 µM
  TGI: > 100 µM
DU-145 prostate
  GI50: 3.21 µM
  TGI: > 100 µM

## CN(C)c1nc(NCCNS(=O)(=O)c2ccc(C(=O)/C=C/c3ccc(F)cc3)cc2)nc(N2CCOCC2)n1
SF-295 CNS
  GI50: 11.3 µM
  TGI: 23.8 µM
SNB-19 CNS
  GI50: 13.4 µM
  TGI: 26.5 µM
786-0 renal
  GI50: 14.5 µM
  TGI: 28.7 µM
SK-MEL-28 melanoma
  GI50: 14.9 µM
  TGI: 28.2 µM
UACC-62 melanoma
  GI50: 10.8 µM
  TGI: 23 µM
SK-OV-3 ovarian
  GI50: 13.8 µM
  TGI: 27.6 µM
NCI-H522 lung
  GI50: 13.3 µM
  TGI: 26.6 µM
COLO 205 colon
  GI50: 14.6 µM
  TGI: 30.2 µM
UACC-257 melanoma
  GI50: 15.5 µM
  TGI: 29.2 µM
SW-620 colon
  GI50: 3.39 µM
  TGI: 12.3 µM
OVCAR-5 ovarian
  GI50: 13.6 µM
  TGI: 26.8 µM
IGROV1 ovarian
  GI50: 2.27 µM
  TGI: 6.18 µM
HCT-116 colon
  GI50: 2.29 µM
  TGI: 5.25 µM
SK-MEL-5 melanoma
  GI50: 15.7 µM
  TGI: 29.2 µM
OVCAR-3 ovarian
  GI50: 14.6 µM
  TGI: 28.5 µM
EKVX NSCLC
  GI50: 14.4 µM
  TGI: 27.8 µM
U251 CNS
  GI50: 4.74 µM
  TGI: 16.7 µM
OVCAR-4 ovarian
  GI50: 11.9 µM
  TGI: 24.7 µM
HCT-15 colon
  GI50: 2.15 µM
  TGI: 4.92 µM
SF-268 CNS
  GI50: 15 µM
  TGI: 37.5 µM
HCC-2998 colon
  GI50: 16 µM
  TGI: 29.9 µM
RPMI-8226 leukemia
  GI50: 1.91 µM
  TGI: 5.07 µM
OVCAR-8 ovarian
  GI50: 14.7 µM
  TGI: 28.2 µM
HL-60(TB) leukemia
  GI50: 14.7 µM
  TGI: > 100 µM
A549 NSCLC
  GI50: 13.7 µM
  TGI: 27.9 µM
MDA-MB-468 breast
  GI50: 8.08 µM
  TGI: 22.6 µM
M14 melanoma
  GI50: 15 µM
  TGI: 30.5 µM
SK-MEL-2 melanoma
  GI50: 13.7 µM
  TGI: 26.8 µM
BT-549 breast
  GI50: 15.1 µM
  TGI: 29.2 µM
KM12 colon
  GI50: 13.4 µM
  TGI: 30.6 µM
SN12C renal
  GI50: 12 µM
  TGI: 24.4 µM
MDA-MB-435
  GI50: 11.6 µM
  TGI: 24.6 µM
LOX IMVI melanoma
  GI50: 1.63 µM
  TGI: 3.17 µM
UO-31 renal
  GI50: 11 µM
  TGI: 23 µM
CCRF-CEM leukemia
  GI50: 6.58 µM
  TGI: 39.1 µM
A498 renal
  GI50: 11.9 µM
  TGI: 24.4 µM
SR leukemia
  GI50: 3.45 µM
  TGI: > 100 µM
CAKI-1 renal
  GI50: 9.5 µM
  TGI: 21.9 µM
HT29 colon
  GI50: 2.85 µM
  TGI: 8.39 µM
PC-3 prostate
  GI50: 11.2 µM
  TGI: 25.5 µM
SF-539 CNS
  GI50: 13.2 µM
  TGI: 25.9 µM
RXF 393 renal
  GI50: 8.82 µM
  TGI: 21.2 µM
K-562 leukemia
  GI50: 3.7 µM
  TGI: > 100 µM
MDA-MB-231 breast
  GI50: 12.3 µM
  TGI: 25.3 µM
HOP-92 NSCLC
  GI50: 12.7 µM
  TGI: 28.5 µM
HS 578T breast
  GI50: 14.6 µM
  TGI: 54.6 µM
TK-10 renal
  GI50: 15.3 µM
  TGI: 28.7 µM
MCF7 breast
  GI50: 2.99 µM
  TGI: 11.2 µM
NCI-H460 lung
  GI50: 15.7 µM
  TGI: 33 µM
ACHN renal
  GI50: 13.1 µM
  TGI: 26 µM
T-47D breast
  GI50: 11.9 µM
  TGI: 33.5 µM
NCI-H226 lung
  GI50: 12.3 µM
  TGI: 28.2 µM
HOP-62 NSCLC
  GI50: 16.1 µM
  TGI: 31.5 µM
NCI-H23 lung
  GI50: 14.6 µM
  TGI: 28.1 µM
MOLT-4 leukemia
  GI50: 4.69 µM
  TGI: > 100 µM
MALME-3M melanoma
  GI50: 14.6 µM
  TGI: 28.2 µM
DU-145 prostate
  GI50: 14.4 µM
  TGI: 27.8 µM
